Columns and labels:
5-HT transporter = target: T1, 5-HT transporter (Homo sapiens, UniProt P31645); assay: SafetyScreen44 radioligand binding; details: read-out: % Inh (% inhibition of control specific binding)
T1 construct: purchased Eurofins Cerep (SafetyScreen44)
Method: (§1) The SafetyScreen44® assay was carried out by Eurofins (Poitiers, France) according to the service-provider’s protocol. CPL500036 (1 µM) was tested against a panel of […] potential off-targets proteins, including G protein-coupled receptors (GPCRs), transporters, ion channels, nuclear receptors kinases and other non-kinase enzymes, by use of a set of the binding assays.
(§2) Binding of CPL500036 was calculated as the percent binding inhibition of a radioactively labeled ligand specific for each target. Enzyme inhibition of CPL500036 was calculated as the percent inhibition of the activity of the control enzyme. “No interaction” was denoted if inhibition ≤ 25% of specific binding of the control. Determination of muscarinic acetylcholine receptor (M2) activity induced by CPL500036 (antagonism and agonism) was undertaken in human recombinant CHO cells by measurement of the intracellular cAMP level according to the service-provider’s protocol. IC50 (concentration causing a half-maximal inhibition of specific binding of the control) or EC50 (concentration causing a half-maximal response of specific binding of the control) and the Hill coefficient were determined by non-linear regression analysis of the competition curves generated with mean replicate values using Hill-equation curve fitting with software developed at Cerep (Celle-Lévescault, France).

Endothelin receptor = target: T2, Endothelin receptor (Homo sapiens, UniProt P25101); assay: SafetyScreen44 radioligand binding; details: agonist radioligand, read-out: % Inh (% inhibition of control specific binding)
T2 construct: purchased Eurofins Cerep (SafetyScreen44)
Method: as §1, §2

Monoamine oxidase A = target: T3, Monoamine oxidase A (Rattus norvegicus, UniProt P21396); assay: SafetyScreen44 radioligand binding; details: read-out: % Inh (% inhibition of control specific binding)
T3 construct: purchased Eurofins Cerep (SafetyScreen44)
Method: as §1, §2

adenosine A2A receptor = target: T4, adenosine A2A receptor (Homo sapiens, UniProt P29274); assay: SafetyScreen44 radioligand binding; details: agonist radioligand, read-out: % Inh (% inhibition of control specific binding)
T4 construct: purchased Eurofins Cerep (SafetyScreen44)
Method: as §1, §2

[1] = target: T5, alpha 4/beta 2 nicotinic acetylcholine receptor, (neuronal) (Homo sapiens, UniProt P17787+P43681); assay: SafetyScreen44 radioligand binding; details: agonist radioligand, read-out: % Inh (% inhibition of control specific binding)
T5 construct: purchased Eurofins Cerep (SafetyScreen44)
Method: as §1, §2

[2] = target: T6, alpha-2A adrenergic receptor (Homo sapiens, UniProt P08913); assay: SafetyScreen44 radioligand binding; details: read-out: % Inh (% inhibition of control specific binding)
T6 construct: purchased Eurofins Cerep (SafetyScreen44)
Method: as §1, §2

[3] = target: T7, beta-1 adrenergic receptor (Homo sapiens, UniProt P08588); assay: SafetyScreen44 radioligand binding; details: agonist radioligand, read-out: % Inh (% inhibition of control specific binding)
T7 construct: purchased Eurofins Cerep (SafetyScreen44)
Method: as §1, §2

[4] = target: T8, beta-2 adrenergic receptor (Homo sapiens, UniProt P07550); assay: SafetyScreen44 radioligand binding; details: agonist radioligand, read-out: % Inh (% inhibition of control specific binding)
T8 construct: purchased Eurofins Cerep (SafetyScreen44)
Method: as §1, §2

[5] = target: T9, cannabinoid receptor type 1 (Homo sapiens, UniProt P21554); assay: SafetyScreen44 radioligand binding; details: agonist radioligand, read-out: % Inh (% inhibition of control specific binding)
T9 construct: purchased Eurofins Cerep (SafetyScreen44)
Method: as §1, §2

[6] = target: T10, cannabinoid receptor type 2 (Homo sapiens, UniProt P34972); assay: SafetyScreen44 radioligand binding; details: agonist radioligand, read-out: % Inh (% inhibition of control specific binding)
T10 construct: purchased Eurofins Cerep (SafetyScreen44)
Method: as §1, §2

dopamine receptor type 1 = target: T11, dopamine receptor type 1 (Homo sapiens, UniProt P21728); assay: SafetyScreen44 radioligand binding; details: read-out: % Inh (% inhibition of control specific binding)
T11 construct: purchased Eurofins Cerep (SafetyScreen44)
Method: as §1, §2

dopamine receptor type 2 = target: T12, dopamine receptor type 2 (Homo sapiens, UniProt P14416); assay: SafetyScreen44 radioligand binding; details: agonist radioligand, read-out: % Inh (% inhibition of control specific binding)
T12 construct: purchased Eurofins Cerep (SafetyScreen44)
Method: as §1, §2

dopamine transporter = target: T13, dopamine transporter (Homo sapiens, UniProt Q01959); assay: SafetyScreen44 radioligand binding; details: read-out: % Inh (% inhibition of control specific binding)
T13 construct: purchased Eurofins Cerep (SafetyScreen44)
Method: as §1, §2

glucocorticoid receptor = target: T14, glucocorticoid receptor (Homo sapiens, UniProt P04150); assay: SafetyScreen44 radioligand binding; details: agonist radioligand, read-out: % Inh (% inhibition of control specific binding)
T14 construct: purchased Eurofins Cerep (SafetyScreen44)
Method: as §1, §2

[7] = target: T15, histamine receptor type 1 (Homo sapiens, UniProt P35367); assay: SafetyScreen44 radioligand binding; details: read-out: % Inh (% inhibition of control specific binding)
T15 construct: purchased Eurofins Cerep (SafetyScreen44)
Method: as §1, §2

[8] = target: T16, muscarinic acetylcholine receptor type 1 (Homo sapiens, UniProt P11229); assay: SafetyScreen44 radioligand binding; details: read-out: % Inh (% inhibition of control specific binding)
T16 construct: purchased Eurofins Cerep (SafetyScreen44)
Method: as §1, §2

[9] = target: T17, muscarinic acetylcholine receptor type 3 (Homo sapiens, UniProt P20309); assay: SafetyScreen44 radioligand binding; details: read-out: % Inh (% inhibition of control specific binding)
T17 construct: purchased Eurofins Cerep (SafetyScreen44)
Method: as §1, §2

[10] = target: T18, norepinephrine transporter (Homo sapiens, UniProt P23975); assay: SafetyScreen44 radioligand binding; details: read-out: % Inh (% inhibition of control specific binding)
T18 construct: purchased Eurofins Cerep (SafetyScreen44)
Method: as §1, §2

[11] = target: T19, potassium voltage-gated channel subfamily H member 2 (hERG) (Homo sapiens, UniProt Q12809); assay: SafetyScreen44 radioligand binding; details: read-out: % Inh (% inhibition of control specific binding)
T19 construct: purchased Eurofins Cerep (SafetyScreen44)
Method: as §1, §2

serotonin receptor 1A = target: T20, serotonin receptor 1A (Homo sapiens, UniProt P08908); assay: SafetyScreen44 radioligand binding; details: agonist radioligand, read-out: % Inh (% inhibition of control specific binding)
T20 construct: purchased Eurofins Cerep (SafetyScreen44)
Method: as §1, §2

serotonin receptor 1B = target: T21, serotonin receptor 1B (Rattus norvegicus, UniProt P28564); assay: SafetyScreen44 radioligand binding; details: read-out: % Inh (% inhibition of control specific binding)
T21 construct: purchased Eurofins Cerep (SafetyScreen44)
Method: as §1, §2

serotonin receptor 2A = target: T22, serotonin receptor 2A (Homo sapiens, UniProt P28223); assay: SafetyScreen44 radioligand binding; details: agonist radioligand, read-out: % Inh (% inhibition of control specific binding)
T22 construct: purchased Eurofins Cerep (SafetyScreen44)
Method: as §1, §2

serotonin receptor 2B = target: T23, serotonin receptor 2B (Homo sapiens, UniProt P41595); assay: SafetyScreen44 radioligand binding; details: agonist radioligand, read-out: % Inh (% inhibition of control specific binding)
T23 construct: purchased Eurofins Cerep (SafetyScreen44)
Method: as §1, §2

serotonin receptor 3 = target: T24, serotonin receptor 3 (Homo sapiens, UniProt P46098); assay: SafetyScreen44 radioligand binding; details: read-out: % Inh (% inhibition of control specific binding)
T24 construct: purchased Eurofins Cerep (SafetyScreen44)
Method: as §1, §2

vasopressin receptor = target: T25, vasopressin receptor (Homo sapiens, UniProt P37288); assay: SafetyScreen44 radioligand binding; details: agonist radioligand, read-out: % Inh (% inhibition of control specific binding)
T25 construct: purchased Eurofins Cerep (SafetyScreen44)
Method: as §1, §2

µ -type opioid receptor = target: T26, µ -type opioid receptor (Homo sapiens, UniProt P35372); assay: SafetyScreen44 radioligand binding; details: agonist radioligand, read-out: % Inh (% inhibition of control specific binding)
T26 construct: purchased Eurofins Cerep (SafetyScreen44)
Method: as §1, §2

[12] = target: T27, δ-type opioid receptor ẟ2 (Homo sapiens, UniProt P41143); assay: SafetyScreen44 radioligand binding; details: agonist radioligand, read-out: % Inh (% inhibition of control specific binding)
T27 construct: purchased Eurofins Cerep (SafetyScreen44)
Method: as §1, §2

κ-type opioid receptor = target: T28, κ-type opioid receptor (Rattus norvegicus, UniProt P34975); assay: SafetyScreen44 radioligand binding; details: agonist radioligand, read-out: % Inh (% inhibition of control specific binding)
T28 construct: purchased Eurofins Cerep (SafetyScreen44)
Method: as §1, §2

[13] = tested on: cardiac 3D spheroids (cardiomyocytes and fibroblasts derived from human pluripotent cells); assay: Cardiotoxicity in spontaneously beating cardiac 3D spheroids; type: cell-based
Method: The cardiotoxic effect of CPL500036 was evaluated in spontaneously beating cardiac 3D spheroids (comprising cardiomyocytes and fibroblasts derived from human pluripotent cells) by Cyprotex (Cheshire, United Kingdom). Experiments were carried out in accordance with the service-provider’s protocol. Specific parameters of cell health were assessed: number and size of spheroids, DNA structure, intracellular level of calcium ions, mitochondrial mass, membrane potential and cellular ATP. […] During the 14 days of the experiment, redosing occurred on three occasions. Spheroid hypertrophy was measured on days 3, 7, 10, and 14 using the “brightfield live cellular imaging” mode of a Cellomics ArrayScan® XTI system (Thermo Scientific, Waltham, MA, United States). On day-14, the spheroid model was analyzed using the confocal mode of Cellomics ArrayScan XTI following incorporation of appropriate fluorescent dyes. Subsequently, cellular ATP content was measured using CellTiterGlo® (Promega, Fitchburg, WI, United States). Mitomicyn C and dasatinib were used as positive controls (Supplementary Table S1).
concentration at which 50% maximum effect is observed for each cell health parameter; NR - No response observed.

[14] = Hepatocyte stability assay; type: in vitro ADME; details: data not shown, n = 6

T10 sequence (P34972 whole entry): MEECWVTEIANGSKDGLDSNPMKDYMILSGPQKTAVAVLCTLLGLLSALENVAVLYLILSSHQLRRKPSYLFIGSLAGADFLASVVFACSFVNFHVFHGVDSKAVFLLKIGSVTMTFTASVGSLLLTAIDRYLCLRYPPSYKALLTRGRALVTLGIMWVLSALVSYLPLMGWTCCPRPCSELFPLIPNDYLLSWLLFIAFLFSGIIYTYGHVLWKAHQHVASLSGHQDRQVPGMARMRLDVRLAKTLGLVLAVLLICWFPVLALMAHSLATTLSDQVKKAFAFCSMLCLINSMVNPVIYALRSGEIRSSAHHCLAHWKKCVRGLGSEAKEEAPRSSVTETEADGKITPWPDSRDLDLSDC
T16 sequence (P11229 whole entry): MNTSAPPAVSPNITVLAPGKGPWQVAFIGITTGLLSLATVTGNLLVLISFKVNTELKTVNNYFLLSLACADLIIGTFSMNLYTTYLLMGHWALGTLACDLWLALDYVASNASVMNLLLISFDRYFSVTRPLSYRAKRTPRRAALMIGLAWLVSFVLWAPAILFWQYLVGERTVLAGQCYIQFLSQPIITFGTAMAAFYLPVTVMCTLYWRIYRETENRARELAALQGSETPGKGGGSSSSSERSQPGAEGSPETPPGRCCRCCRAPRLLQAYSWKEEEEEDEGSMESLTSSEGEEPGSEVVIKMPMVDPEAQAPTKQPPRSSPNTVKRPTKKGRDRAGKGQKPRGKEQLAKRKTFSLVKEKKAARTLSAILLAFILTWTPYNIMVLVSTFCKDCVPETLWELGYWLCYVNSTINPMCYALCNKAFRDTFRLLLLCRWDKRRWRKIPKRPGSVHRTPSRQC
T23 sequence (P41595 whole entry): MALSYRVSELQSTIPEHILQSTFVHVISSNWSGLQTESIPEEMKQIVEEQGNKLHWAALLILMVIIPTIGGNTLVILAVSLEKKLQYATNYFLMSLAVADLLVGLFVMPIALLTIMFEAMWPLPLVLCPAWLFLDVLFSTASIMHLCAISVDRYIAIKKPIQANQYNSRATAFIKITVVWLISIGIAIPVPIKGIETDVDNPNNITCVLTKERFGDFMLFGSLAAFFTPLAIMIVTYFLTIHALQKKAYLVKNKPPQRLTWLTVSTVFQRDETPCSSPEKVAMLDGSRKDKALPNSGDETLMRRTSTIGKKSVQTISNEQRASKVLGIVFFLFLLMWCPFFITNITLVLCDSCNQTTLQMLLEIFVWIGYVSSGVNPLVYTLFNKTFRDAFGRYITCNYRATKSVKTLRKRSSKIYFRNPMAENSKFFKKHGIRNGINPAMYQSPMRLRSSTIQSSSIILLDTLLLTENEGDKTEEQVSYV
T12 sequence (P14416 whole entry): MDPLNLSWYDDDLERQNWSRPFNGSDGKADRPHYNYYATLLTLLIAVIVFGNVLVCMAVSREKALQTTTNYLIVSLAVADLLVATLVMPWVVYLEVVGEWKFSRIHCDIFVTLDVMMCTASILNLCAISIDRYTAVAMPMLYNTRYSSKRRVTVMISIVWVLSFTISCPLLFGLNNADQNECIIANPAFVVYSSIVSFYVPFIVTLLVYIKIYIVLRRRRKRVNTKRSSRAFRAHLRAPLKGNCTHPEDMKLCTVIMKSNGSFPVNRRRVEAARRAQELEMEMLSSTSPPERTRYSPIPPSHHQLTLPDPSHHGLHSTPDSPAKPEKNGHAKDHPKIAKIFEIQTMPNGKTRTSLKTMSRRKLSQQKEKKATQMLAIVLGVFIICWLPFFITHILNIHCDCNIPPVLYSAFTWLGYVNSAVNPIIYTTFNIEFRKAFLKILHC
T5 sequence (P43681 29-627 limits assumed): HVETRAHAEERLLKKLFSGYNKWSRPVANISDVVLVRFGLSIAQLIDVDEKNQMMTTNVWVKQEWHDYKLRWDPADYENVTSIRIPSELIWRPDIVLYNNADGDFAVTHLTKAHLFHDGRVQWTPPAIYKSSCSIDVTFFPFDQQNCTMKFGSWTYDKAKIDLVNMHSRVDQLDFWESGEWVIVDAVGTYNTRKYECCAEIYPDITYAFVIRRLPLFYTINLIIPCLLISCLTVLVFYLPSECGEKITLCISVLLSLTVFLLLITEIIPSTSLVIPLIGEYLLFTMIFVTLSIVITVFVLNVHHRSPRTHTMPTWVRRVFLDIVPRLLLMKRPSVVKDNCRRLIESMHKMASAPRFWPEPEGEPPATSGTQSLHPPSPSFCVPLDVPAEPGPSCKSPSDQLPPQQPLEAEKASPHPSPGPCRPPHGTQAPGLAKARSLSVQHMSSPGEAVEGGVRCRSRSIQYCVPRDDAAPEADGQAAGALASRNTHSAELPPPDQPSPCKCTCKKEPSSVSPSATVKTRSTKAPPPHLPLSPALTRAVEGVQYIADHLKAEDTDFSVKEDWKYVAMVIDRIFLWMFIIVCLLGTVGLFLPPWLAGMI
T5 sequence (P17787 26-502): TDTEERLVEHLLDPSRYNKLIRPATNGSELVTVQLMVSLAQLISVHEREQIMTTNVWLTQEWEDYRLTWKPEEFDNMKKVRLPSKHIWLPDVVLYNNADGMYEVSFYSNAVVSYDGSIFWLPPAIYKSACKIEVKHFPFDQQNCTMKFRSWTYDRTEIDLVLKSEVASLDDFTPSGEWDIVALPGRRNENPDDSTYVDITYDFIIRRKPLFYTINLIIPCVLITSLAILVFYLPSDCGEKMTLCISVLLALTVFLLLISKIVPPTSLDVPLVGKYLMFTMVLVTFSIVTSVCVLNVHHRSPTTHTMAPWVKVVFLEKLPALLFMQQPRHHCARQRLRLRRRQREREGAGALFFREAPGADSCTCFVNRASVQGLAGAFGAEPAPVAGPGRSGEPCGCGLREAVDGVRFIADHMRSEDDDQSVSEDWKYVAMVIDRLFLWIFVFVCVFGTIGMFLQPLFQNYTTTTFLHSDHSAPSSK
T4 sequence (P29274 whole entry): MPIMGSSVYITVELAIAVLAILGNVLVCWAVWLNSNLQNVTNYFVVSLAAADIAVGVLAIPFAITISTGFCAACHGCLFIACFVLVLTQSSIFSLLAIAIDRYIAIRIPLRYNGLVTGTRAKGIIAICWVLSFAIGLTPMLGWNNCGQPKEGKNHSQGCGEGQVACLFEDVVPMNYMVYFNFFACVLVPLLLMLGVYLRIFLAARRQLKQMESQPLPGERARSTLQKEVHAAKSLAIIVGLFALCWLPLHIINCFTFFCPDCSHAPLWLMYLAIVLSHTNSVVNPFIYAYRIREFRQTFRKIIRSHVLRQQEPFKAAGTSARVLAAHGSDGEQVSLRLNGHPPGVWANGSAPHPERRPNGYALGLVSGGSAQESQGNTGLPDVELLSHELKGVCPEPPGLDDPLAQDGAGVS
T15 sequence (P35367 whole entry): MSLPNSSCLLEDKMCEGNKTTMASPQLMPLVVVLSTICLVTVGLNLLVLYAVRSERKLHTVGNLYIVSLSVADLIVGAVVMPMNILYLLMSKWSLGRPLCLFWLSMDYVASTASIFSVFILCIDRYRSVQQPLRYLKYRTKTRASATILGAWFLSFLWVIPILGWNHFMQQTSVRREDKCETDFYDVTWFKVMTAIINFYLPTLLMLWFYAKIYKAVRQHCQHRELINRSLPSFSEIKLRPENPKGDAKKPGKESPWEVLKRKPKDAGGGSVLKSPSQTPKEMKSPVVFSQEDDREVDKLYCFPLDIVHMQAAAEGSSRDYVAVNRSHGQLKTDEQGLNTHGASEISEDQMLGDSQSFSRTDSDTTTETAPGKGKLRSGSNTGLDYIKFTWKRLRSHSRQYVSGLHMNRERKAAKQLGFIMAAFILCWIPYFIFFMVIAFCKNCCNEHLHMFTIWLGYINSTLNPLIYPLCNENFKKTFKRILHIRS
T27 sequence (P41143 whole entry): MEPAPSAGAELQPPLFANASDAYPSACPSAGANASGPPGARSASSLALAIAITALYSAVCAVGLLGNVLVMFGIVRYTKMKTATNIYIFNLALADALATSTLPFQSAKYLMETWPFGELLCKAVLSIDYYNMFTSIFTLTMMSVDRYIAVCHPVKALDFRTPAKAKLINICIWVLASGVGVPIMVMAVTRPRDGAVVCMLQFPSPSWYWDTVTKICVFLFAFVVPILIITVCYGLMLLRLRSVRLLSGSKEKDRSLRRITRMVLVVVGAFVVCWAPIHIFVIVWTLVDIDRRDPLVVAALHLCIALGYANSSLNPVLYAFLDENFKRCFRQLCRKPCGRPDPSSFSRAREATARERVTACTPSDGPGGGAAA
T21 sequence (P28564 whole entry): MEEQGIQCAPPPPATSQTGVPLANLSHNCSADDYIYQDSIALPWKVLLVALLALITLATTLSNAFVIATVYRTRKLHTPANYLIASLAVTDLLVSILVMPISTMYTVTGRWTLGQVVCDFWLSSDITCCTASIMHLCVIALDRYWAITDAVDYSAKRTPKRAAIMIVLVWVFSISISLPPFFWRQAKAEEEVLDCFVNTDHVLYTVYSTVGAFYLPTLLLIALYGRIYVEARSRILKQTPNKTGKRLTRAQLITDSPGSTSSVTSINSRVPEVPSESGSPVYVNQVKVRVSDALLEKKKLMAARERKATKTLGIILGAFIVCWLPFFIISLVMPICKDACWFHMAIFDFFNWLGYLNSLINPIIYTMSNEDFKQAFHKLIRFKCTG
T8 sequence (P07550 whole entry): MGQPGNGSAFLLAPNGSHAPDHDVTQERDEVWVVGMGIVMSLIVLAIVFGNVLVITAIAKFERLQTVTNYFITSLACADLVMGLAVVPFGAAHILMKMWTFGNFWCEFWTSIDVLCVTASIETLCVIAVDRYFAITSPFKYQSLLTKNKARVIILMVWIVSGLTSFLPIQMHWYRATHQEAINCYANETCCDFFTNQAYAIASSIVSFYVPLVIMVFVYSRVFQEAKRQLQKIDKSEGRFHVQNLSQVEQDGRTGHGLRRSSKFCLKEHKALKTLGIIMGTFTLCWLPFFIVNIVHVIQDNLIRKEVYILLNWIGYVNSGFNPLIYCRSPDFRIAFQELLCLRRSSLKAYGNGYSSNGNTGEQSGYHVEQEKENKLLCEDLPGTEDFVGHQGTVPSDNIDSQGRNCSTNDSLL

## Cc1ncc(C)n2nc(-c3ccn4cc(-c5ccccc5)nc4n3)nc12 [CPL500036, 7-[5,8-Dimethyl-(1,2,4)triazolo (1,5-a)pyrazin-2-yl]-2-phenylimidazo (1,2-a) pyrimidine]
5-HT transporter
  inhibition at 1 µM: -9.5%
Endothelin receptor
  inhibition at 1 µM: -16.8%
Monoamine oxidase A
  inhibition at 1 µM: 1%
Adenosine A2A receptor
  inhibition at 1 µM: -8.1%
[1]
  inhibition at 1 µM: -6.1%
[2]
  inhibition at 1 µM: 0.4%
[3]
  inhibition at 1 µM: 1.1%
[4]
  inhibition at 1 µM: 8.2%
[5]
  inhibition at 1 µM: 8.8%
[6]
  inhibition at 1 µM: -14.6%
Dopamine receptor type 1
  inhibition at 1 µM: -8.2%
Dopamine receptor type 2
  inhibition at 1 µM: -14.4%
Dopamine transporter
  inhibition at 1 µM: -6.9%
Glucocorticoid receptor
  inhibition at 1 µM: -3.2%
[7]
  inhibition at 1 µM: -14.6%
[8]
  inhibition at 1 µM: -19.7%
[9]
  inhibition at 1 µM: 0.7%
[10]
  inhibition at 1 µM: -14.5%
[11]
  inhibition at 1 µM: -19.6%
Serotonin receptor 1A
  inhibition at 1 µM: 5.4%
Serotonin receptor 1B
  inhibition at 1 µM: -7.3%
Serotonin receptor 2A
  inhibition at 1 µM: -8.6%
Serotonin receptor 2B
  inhibition at 1 µM: 10.6%
Serotonin receptor 3
  inhibition at 1 µM: -5.7%
Vasopressin receptor
  inhibition at 1 µM: -0.8%
µ -type opioid receptor
  inhibition at 1 µM: -1.1%
[12]
  inhibition at 1 µM: 6.9%
κ-type opioid receptor
  inhibition at 1 µM: 7.7%
[13]; 0.0457 μM–100 µM
  effect on the number or size of spheroids, intracellular calcium concentration, mitochondrial mass, membrane potential or intracellular ATP: no effect
[13]; Homo sapiens, 3D cardiac spheroids, 0.0457 μM–100 µM, read-out: IC50, impaired DNA structure
  IC50: 37.4 µM
[13]; Homo sapiens, 3D cardiac spheroids, read-out: DNA structure AC50
  AC50: 37.4 µM
[14]
  active metabolites: no active metabolites were identified

Reference: paper PMC9681820, “A PDE10A inhibitor CPL500036 is a novel agent modulating striatal function devoid of most neuroleptic side-effects” (Frontiers in Pharmacology, 2022)
